Laboratory results: PubChem BioAssay (NCI)
“And” between values parts separate entries of the source, which are not always exact repeats. Identical values can stand only once.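 These data come from cells grown in 96-well plates and exposed to compound for 48 hours at five concentrations. GI50: concentration for 50% inhibition of growth. TGI marks complete inhibition of growth.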 Where a SMILES comes first, the peptide text is derived from it. The star is where a group is joined. Boc = CC(C)(C)OC(=O)*; Bn = c1ccc(C*)cc1

How the values were obtained:
Assay in all cases: growth of human tumour cells (NCI), 48 h
786-0 renal = tested on: 786-0 renal
DU-145 prostate = tested on: DU-145 prostate
NCI-H23 lung = tested on: NCI-H23 lung
KM12 colon = tested on: KM12 colon
RXF 393 renal = tested on: RXF 393 renal
OVCAR-4 ovarian = tested on: OVCAR-4 ovarian

Row | SMILES | TGI (786-0 renal) [µM] | TGI (DU-145 prostate) | TGI (NCI-H23 lung) [µM] | TGI (KM12 colon) | TGI (RXF 393 renal) | TGI (OVCAR-4 ovarian) | GI50 (KM12 colon)
1 | Cc1ncc([N+](=O)[O-])n1CCNC(=O)Cn1ccnc1[N+](=O)[O-] | > 100 | > 100 µM | > 100 | > 100 µM | – | – | –
2 | CC(C)(C)OC(=O)NC(Cc1ccc(OCc2ccccc2)cn1)C(=O)O (stereo not given) | > 100 | > 100 µM | > 100 | > 100 µM | > 100 µM | > 100 µM | –
3 | CC(C)(C)OC(=O)NCC(=O)N(CCc1ccc(Cl)c(Cl)c1)CCN1CCCC1 | 28 | 32.3 µM | 37.1 | 32.6 µM | 29.7 µM | 54.9 µM | –
4 | O=C(/N=C1/OC(CN2CCOCC2)CN1C(=O)Nc1ccccc1)Nc1ccccc1 (stereo not given) | > 100 | > 100 µM | > 100 | > 100 µM | > 100 µM | > 100 µM | –
5 | Cc1ccc(/C=C2\CCCCCC2=O)cc1 | > 100 | > 100 µM | > 100 | > 100 µM | – | > 100 µM | –
6 | Cc1ccc(S(=O)(=O)NC(=O)NCC(N)=O)cc1 | > 100 | > 100 µM | > 100 | > 100 µM | > 100 µM | > 100 µM | –
7 | [O-]/[N+](=N/c1ncc(-c2ccccc2)cn1)c1ncc(-c2ccccc2)cn1 | > 100 | > 100 µM | > 100 | > 100 µM | > 100 µM | > 100 µM | –
8 | CCC1(CC)C(=O)NN(C(=O)c2ccc(Cl)cc2)C1=O | > 100 | > 100 µM | > 100 | > 100 µM | > 100 µM | > 100 µM | –
9 | O=c1[nH]c2cc3[nH]c(=O)c(=O)[nH]c3cc2[nH]c1=O | > 100 | > 100 µM | > 100 | > 100 µM | > 100 µM | – | –
10 | O=C1CC2(CCNCC2)C(=O)N1N1CCCCC1 | > 100 | > 100 µM | > 100 | > 100 µM | > 100 µM | > 100 µM | –
11 | COc1ccc2cc(/C=N\NC(=O)Nc3ccc([N+](=O)[O-])cc3)ccc2c1 | 16.8 | 14 µM | 16.6 | 24.5 µM | 16.6 µM | 15.9 µM | –
12 | C=CCN1C(=O)/C(=C/c2ccc(OC)cc2)N=C1SC1OC(COC(C)=O)C(OC(C)=O)C(OC(C)=O)C1OC(C)=O (stereo not given) | > 100 | 39.2 µM and > 100 µM | > 100 | 62.5 µM and > 100 µM | 46.5 µM and 89.5 µM | 15 µM and > 100 µM | 21.4 µM and > 100 µM
13 | COC1=CC(=O)c2c(n[nH]c2CCNC(=O)OCc2ccccc2)C1=O | 31.3 | – | 15.5 | 22.9 µM | – | – | –
14 | CCN(CC)c1ccc2cc(-c3csc(C)n3)c(=O)oc2c1 | > 100 | > 100 µM | – | > 100 µM | > 100 µM | > 100 µM | –
15 | CC(C)(C)CN1[C@@H]2CCCC[C@H]2N(CC(C)(C)C)P1(=O)C(O)/C=C/c1ccccc1 (stereo not given in full) | > 100 | > 100 µM | > 100 | > 100 µM | > 100 µM | > 100 µM | –
16 | O=[N+]([O-])c1cc2ccc1OCc1cccc(n1)COc1ccc(cc1[N+](=O)[O-])C=NCCCCCCCCN=C2 | > 100 | > 100 µM | > 100 | > 100 µM | – | > 100 µM | –
17 | CC1CN=C(NS(=O)(=O)c2cc(C(=O)Nc3ccccc3)c(Cl)cc2S)NN1 (stereo not given) | > 100 | > 100 µM | > 100 | > 100 µM | – | > 100 µM | –
18 | Cc1ccc(C2=Nn3c(nc4sc5c(c4c3=O)CCCC5)SC2)cc1 | > 100 | > 100 µM | > 100 | > 100 µM | > 100 µM | > 100 µM | –
19 | N#Cc1nc(-c2ccc(-c3nc(C#N)c(N)o3)cc2)oc1N | > 10 | > 10 µM | > 10 | > 10 µM | > 10 µM | > 10 µM | –
20 | Cn1c(-c2cccs2)cc(-c2ccsc2)c1-c1cccs1 | > 100 | > 100 µM | > 100 | > 100 µM | > 100 µM | > 100 µM | –
21 | COC(=O)C(CC(C)C)NC(=O)CNC(=O)C(Cc1ccc(OCc2ccccc2)cc1)NC(=O)C(COCc1ccccc1)NC(=O)OC(C)(C)C (stereo not given) (Boc-S(Bn)Y(Bn)GL-OMe; configuration not given here) | > 100 | > 100 µM | > 100 | > 100 µM | > 100 µM | > 100 µM | –
22 | O=C1Nc2ccccc2/C1=N/N1C(=O)/C(=C/c2ccccc2S)N=C1c1ccccc1 | > 100 | > 100 µM | > 100 | > 100 µM | > 100 µM | > 100 µM | –
23 | CC(=O)c1c2c(cc3c1CC1(C3)Cc3cc4c(c(C(C)=O)c3C1)CCCC4)CCCC2 | > 100 | – | > 100 | > 100 µM | > 100 µM | > 100 µM | –
24 | CCOC(=O)CNC(=O)CNC(=O)CNC(=O)CNNc1c(OCc2ccccc2)c(=O)c1=O | > 100 | > 100 µM | > 100 | > 100 µM | > 100 µM | > 100 µM | –
25 | CC1(C)CC2C(/C1=N/O)C1(C)CCCC2(C)C1O (stereo not given) | > 100 | > 100 µM | > 100 | > 100 µM | – | > 100 µM | –
26 | COc1cc(/C=C2\C(=O)N(c3ccc(NC(C)=O)cc3)C(c3ccccc3)S2(=O)=O)cc(OC)c1OC (stereo not given) | > 100 | > 100 µM | > 100 | > 100 µM | > 100 µM | > 100 µM | –
27 | O=C1/C(=C/c2ccc(OC(=O)c3ccc(Cl)cc3)cc2)CCC/C1=C\c1ccc(OC(=O)c2ccc(Cl)cc2)cc1 | > 100 | > 100 µM | > 100 | > 100 µM | – | > 100 µM | –
28 | COC(=O)/C=C/c1ccc2c(c1)[C@H](C(=O)OC)[C@@H](c1ccc(O)cc1)O2 | > 100 | > 100 µM | > 100 | 88.1 µM | – | > 100 µM | –
29 | COC(=O)/C(C#N)=C(/NCc1ccccc1)Nc1ccccc1 | > 100 | > 100 µM | > 100 | – | > 100 µM | > 100 µM | –
30 | O=C1OC(C2Cc3ccc4c(c3C2=O)CCCC4)c2ccccc21 (stereo not given) | > 100 | > 100 µM | > 100 | > 100 µM | – | > 100 µM | –
